# Test: Drug solubility in medium-chain triglycerides (MCT, Miglyol 812 N); SORESOS 96-well assay, miniaturized shake-flask or literature
# Conditions: decadic logarithm of molar solubility in MCTs (Miglyol 812 N), 24 h at room temperature; no literature source given
# Description: The excipient complies with the quality specifications of the European Pharmacopoeia. The solvents used for the ultra-performance liquid chromatography (UPLC) quantification were of UPLC grade.
# (b) employing a miniaturized version of the shake-flask method in 2 mL glass vials,[33] or (c) collecting data from the literature.[12],[34] Each of the employed assays involved residual solid-state screenings by powder X-ray diffraction to identify potential solid-state changes during solubility screenings.
row,log10 S [M],SMILES
1,-1.47,CC(C)(C)c1ccc(CN(CCc2ccc(F)c(C(F)(F)F)c2)C(=O)c2c(F)c(Cl)cc3cc[nH]c23)cc1 [RO4920915]
2,-0.86,Clc1ccc(COC(Cn2ccnc2)c2ccc(Cl)cc2Cl)c(Cl)c1 (centres unmarked) [miconazole]
3,-1.31,COC(=O)N1CC[C@@H]2[C@@H]1CCC[C@@]2(O)C#Cc1cccc(C)c1 [RO6805580]
4,-2.35,Cc1cc(-n2c(=O)[nH]c(=O)n(C)c2=O)ccc1Oc1ccc(SC(F)(F)F)cc1 [toltrazuril]
5,-4.19,COc1ccc(C)cc1S(=O)(=O)N1CCCc2ccc(C(=O)Nc3ccc(C(=O)O)c(F)c3)cc21 [RO5033672]
6,-3.55,CC[C@@H]([C@H](C)O)n1ncn(-c2ccc(N3CCN(c4ccc(OC[C@@H]5CO[C@@](Cn6cncn6)(c6ccc(F)cc6F)C5)cc4)CC3)cc2)c1=O [posaconazole]
7,-0.63,CC(C)(Oc1ccc(Cl)cc1)C(=O)O [clofibric acid]
8,-3.73,COc1ccc(Cl)cc1S(=O)(=O)N1CCOc2c(C)cc(C(=O)Nc3ccc(CC(=O)O)cc3)cc21 [RO5114497]
9,-3.08,N#Cc1cc(-c2ccc(F)c(F)c2)c2c(c1)cc1n2CCNC1=O [RO6889199]
10,-3.39,COc1ccc(N2CCOCC2)c2sc(NC(=O)N(C)C3CCC(O)CC3)nc12 (centres unmarked) [RO4403289]
11,-1.84,COc1ccc(N2CCCCC2)c2sc(NC(=O)c3ccc(F)cc3)nc12 [RO0718883]
12,-3.40,COc1ccc(N2CCOCC2)c2sc(NC(=O)N3CCC(C)(O)CC3)nc12 [RO4494351]
13,-2.61,COc1ccc(C2CCOCC2)c2sc(NC(=O)N(C)C3CCC(O)CC3)nc12 (centres unmarked) [RO4518423]
14,-1.45,C[C@@H](c1ncncc1F)[C@](O)(Cn1cncn1)c1ccc(F)cc1F [voriconazole]
15,-2.38,COc1cc(C(=O)Nc2nc3c(OC)ccc([C@H]4COCCO4)c3s2)ccn1 [RO4545823]
16,-3.13,Cn1cc(-c2ccc(S(=O)(=O)[C@@H]3C[C@@H](C(=O)NC4(C#N)CC4)N(C(=O)C4(C(F)(F)F)CC4)C3)c(C(F)(F)F)c2)cn1 [RO5459072]
17,-3.11,CC(C)(C)NC(=O)[C@@H]1C[C@@H]2CCCC[C@@H]2CN1C[C@@H](O)[C@H](Cc1ccccc1)NC(=O)[C@H](CC(N)=O)NC(=O)c1ccc2ccccc2n1 [saquinavir]
18,-1.93,COc1ccc(N2CCOCC2)c2sc(NC(=O)c3ccc(C(F)(F)F)cc3)nc12 [RO0720004]
19,-1.90,Cc1onc(-c2ccccn2)c1COc1ccc(C(=O)N2CCOCC2)cn1 [RO5234906]
20,-1.78,COc1cc(C(F)(F)F)cc(SC)c1C(=O)N[C@@]1(c2ccccc2)C[C@@H](OC)CN(C)C1 [RO5469299]
21,-2.69,CN1CCN(c2ccc(C(=O)Nc3n[nH]c4ccc(Cc5cc(F)cc(F)c5)cc34)c(NC3CCOCC3)c2)CC1 [RO7102122]
22,-1.74,OC(c1cc(C(F)(F)F)nc2c(C(F)(F)F)cccc12)C1CCCCN1 (centres unmarked) [mefloquine]
23,-0.41,CCC(CC)CC1(C(=O)Nc2ccccc2SC(=O)C(C)C)CCCCC1 [RO4607381]

row,log10 S [M],SMILES
1,-2.53,O=C(Nc1ccc(Cl)cn1)[C@@H]1CN(CC(F)F)C[C@H]1C(=O)Nc1ccc(-n2ccccc2=O)cc1F [RO4934067]
2,-1.21,CCOC(=O)N1CCC(=C2c3ccc(Cl)cc3CCc3cccnc32)CC1 [loratadine]
3,-1.40,CN(C(=O)c1ncc(C#Cc2cccc(F)c2)cn1)C(C)(C)C [RO6807794]
4,-2.96,Cc1cc(-c2ccc(C(F)(F)F)cc2)cc(-c2cccc(-c3cccc(S(N)(=O)=O)c3)n2)n1 [RO5132673]
5,-2.38,CN1C(=O)N(c2c(F)cc(C#Cc3ccccc3)cc2F)C(=O)C[C@]12CCCc1ncccc12 [RO7059466]
6,-4.65,COc1ccc(N2CCOCC2)c2sc(NC(=O)N3CCC(CO)CC3)nc12 [RO0725612]
7,-3.50,O=C(OCc1ccc(OC(F)(F)F)cc1)N1C[C@@H]2CN(C(=O)c3ccc4n[nH]nc4c3)C[C@@H]2C1 [RO6897779]
8,-2.47,CC1(C)OC2(CCN(C3=NC(=O)C4(Cc5ccccc5C4)O3)CC2)c2cccnc21 [RO6953958]
9,-1.66,CCO[C@H](Cc1ccc2c(ccn2Cc2nc(-c3ccccc3Cl)oc2C)c1)C(=O)O [RO4552952]
10,-1.45,CCOC(=O)C1=C(COCCN)NC(C)=C(C(=O)OC)C1c1ccccc1Cl (centres unmarked) [amlodipine]
11,-2.89,Cc1onc(-c2ccc(F)cn2)c1COc1ccc(C(=O)N2CCS(=O)(=O)CC2)cn1 [RO5292065]
12,-0.17,CN(C)CCCN1c2ccccc2Sc2ccc(Cl)cc21 [chlorpromazine]
13,-2.46,CCn1c(=O)c2c(nc(/C=C/c3ccc(OC)c(OC)c3)n2C)n(CC)c1=O [istradefylline]
14,-1.71,COc1ccc(-c2ccccc2)c2sc(NC(=O)c3ccc(F)cc3)nc12 [RO0691911]
15,-2.35,Cc1ccc(Nc2cncnc2)c(C(=O)Nc2ccn(C)n2)n1 [RO5012841]
16,-2.03,Cc1cc(F)ccc1-c1cc(N2CCS(=O)(=O)CC2)ncc1N(C)C(=O)C(C)(C)c1cc(C(F)(F)F)cc(C(F)(F)F)c1 [RO0728351]
17,0.0143,CC(C)C(=O)c1c(C(C)C)nn2ccccc12 [ibudilast]
18,-1.65,Cc1c(Cl)cccc1Nc1ccccc1C(=O)O [tolfenamic acid]
19,-1.68,COc1cc(C(=O)O)ccc1NC(=O)[C@@H]1N[C@@H](CC(C)(C)C)[C@](C#N)(c2ccc(Cl)cc2F)[C@H]1c1cccc(Cl)c1F [RO5503781]
20,-1.29,CC(C(=O)O)c1ccc2c(c1)[nH]c1ccc(Cl)cc12 (centres unmarked) [carprofen]
21,-3.00,COc1ccc(N2CCOCC2)c2sc(NC(=O)c3ccnc(CN4CCCC4)c3)nc12 [RO0728617]
22,-2.64,CC1(C(=O)N2C[C@H](S(=O)(=O)c3ccc(OCC(F)(F)F)cc3C(F)(F)F)C[C@@H]2C(=O)NC2(C#N)CC2)CC1 [RO5444101]
23,-2.70,C#Cc1cccc(Nc2ncnc3cc(OCCOC)c(OCCOC)cc23)c1 [erlotinib]

row,log10 S [M],SMILES
1,-3.09,COc1cc2ncnc(Nc3ccc(F)c(Cl)c3)c2cc1OCCCN1CCOCC1 [gefitinib]
2,-3.23,Cn1ncc(C(=O)N2CCOCC2)c1C(=O)Nc1ccn2nc(-c3ccccc3)nc2c1 [RO5545965]
3,-4.05,COc1ccc(Cl)cc1S(=O)(=O)N1CCOc2ccc(C(=O)Nc3ccc(C(=O)O)cc3)cc21 [RO5014449]
4,-3.28,Cc1cc(C#N)cc(C)c1Oc1nc(Nc2ccc(C#N)cc2)nc(N)c1Br [etravirine]
5,-0.68,O=C(O)c1ccccc1Nc1cccc(C(F)(F)F)c1 [flufenamic acid]
6,-3.11,CN(C)C(=O)Cc1c(C(=O)O)n(Cc2cccc3ccccc23)c2ccc(F)cc12 [RO5066852]
7,-0.22,O=C1Nc2ccc(Cl)cc2[C@@](C#CC2CC2)(C(F)(F)F)O1 [efavirenz]
8,-2.99,Cc1sc(NC(=O)C2=C(C(=O)O)CCCC2)c(-c2nc(C3CC3)no2)c1C [RO6858805]
9,-1.55,CC(C)(C)c1ccc(CN(CCc2cccc(C(F)(F)F)c2)C(=O)c2c(F)c(Cl)cc3cc[nH]c23)cc1 [RO4920902]
10,-2.45,CC[C@H](C)C(=O)O[C@H]1C[C@@H](C)C=C2C=C[C@H](C)[C@H](CC[C@@H]3C[C@@H](O)CC(=O)O3)[C@H]21 [lovastatin]
11,-4.07,O=C(CCc1ccc(OC(F)(F)F)cc1)N1C[C@@H]2CN(C(=O)c3ccc4[nH]nnc4c3)C[C@@H]2C1 [RO6888975]
12,-2.90,Cc1cccc(C#Cc2cn(-c3cnn(C)c(=O)c3)c(C)n2)c1 [RO5372709]
13,-1.29,CN(C(=O)c1ccc(C#Cc2cc(F)ccc2F)cn1)C(C)(C)C [RO6806127]
14,-2.37,COc1ccc(CCN2CCC(Nc3nc4ccccc4n3Cc3ccc(F)cc3)CC2)cc1 [astemizole]
15,-4.84,COc1ccc(N2CCOCC2)c2sc(NC(=O)N3CC[S+]([O-])CC3)nc12 [RO0712616]
16,-2.04,COc1ccc(N2CCOCC2)c2sc(NC(=O)N(C)[C@@H]3C[C@H]4CC[C@@H]3O4)nc12 [RO4651862]
17,-2.36,CNC(=O)c1ccc(N2C(=S)N(c3ccc(C#N)c(C(F)(F)F)c3)C(=O)C2(C)C)cc1F [enzalutamide]
18,-2.53,Cc1onc(-c2ccc(F)cc2)c1COc1ccc(C(=O)N2CCS(=O)(=O)CC2)cn1 [RO5186582]
19,-2.24,Cc1ccc(-c2noc(C)c2COc2ccc(C(=O)NC3CCOCC3)nn2)cn1 [RO7017773]
20,-3.40,C[C@@H](O[C@H]1OCCN(Cc2n[nH]c(=O)[nH]2)[C@H]1c1ccc(F)cc1)c1cc(C(F)(F)F)cc(C(F)(F)F)c1 [aprepitant]
21,-2.52,Cc1cc(OCc2ccc(-c3ccc(OC(F)(F)F)cc3)nc2)ccc1OC(C)(C)C(=O)O [RO4883572]
22,-0.16,CCc1cc(CCN(Cc2ccc(C(C)(C)C)cc2)C(=O)c2cc(C(F)(F)F)cc(Cl)c2F)ccc1Cl [RO5132822]
23,-2.24,CC(C)(C(=O)NCC(F)(F)C(F)(F)F)C(=O)N[C@@H]1C(=O)Nc2ccccc2-c2ccccc21 [RO4929097]

row,SMILES,log10 S [M]
1,CO[C@@H](Cc1ccc(OCCc2nc(-c3ccccc3)oc2C)c2ccsc12)C(=O)O [aleglitazar],-2.77
2,OCCOc1ccc(/C(=C(/CCCl)c2ccccc2)c2ccccc2)cc1 [ospemifene],-1.47
3,FC(F)c1ncn2c1Cn1ncnc1-c1cc(Br)ccc1-2 [RO4938581],-2.98
4,Cc1cc(-c2cccc(C3=Nc4cc(C)c(C(F)(F)F)cc4NC(=O)C3)c2)ccn1 [RO4432717],-2.89
5,Cn1c(=O)c2[nH]cnc2n(C)c1=O [theophylline],-2.92

# — PMC11220795 (Molecular Pharmaceutics, 2024)
